# Entries after “also recorded” stand apart in the source; their conditions may differ.
# Columns and labels:
# APP/PS1 mice = test: Immunohistochemical staining of SV2A and PSD-95 in APP/PS1 mouse model with washout; format: in vivo
# Method: The objective of this study was to assess synaptic density of control and APP/PS1 mice before and after treatment with Compound 1, and to assess the reversibility of any observed effects following a drug washout period.
# Vehicle (95% polyethylene glycol (PEG) 400/5% solutol) or Compound 1 at 7.5 mg/kg/day (3.75 mg/kg q12) was given to control and APP/PS1 mice for at least 28 days by oral administration. A subset of mice stopped treatment after four weeks, then underwent a four-week washout period.
# Reduced synaptic density in APP/PS1 samples relative to controls was confirmed by immunohistochemical staining of pre- and post-synaptic markers (SV2A and PSD-95) in hippocampal and cortical sections.
# neurons and glia = test: Single nuclei transcriptomics; format: in vivo, mice; details: neurons vs glia
# Description: Compound 1 (e.g., Form A) prevented Alzheimer's triggered aberrant synaptic signaling while preserving physiological Glu activation. Studies have been conducted to show oral Compound 1 effectively occupied brain mGluR5 sites visualized by [^18F]FPEB PET at doses 250-fold below adverse effect levels in rodent and non-human primate. […] Production of the microglial mediator, C1q, was not altered by Compound 1, but Alzheimer-gene-dependent C1q localization to synapses and synaptic engulfment were prevented. Thus, selective modulation of mGluR5 reversed neuronal gene expression changes to protect synapses from damage by microglial mediators.
# CYP2C8 = molecular target: T1, CYP2C8 (Homo sapiens, UniProt P10632); test: CYP450 reaction phenotyping in Supersomes, CYP2C8; format: in vitro ADME
# T1 construct: purchased
# Method: In Vitro CYP450 Reaction Phenotyping Study in Supersomes™ Over-Expressing Human CYP Enzymes
# The CYPP450 enzymes involved in the Phase I metabolism of Compound 1 Form A were investigated in vitro. Compound 1 Form A was metabolized by CYP1A2, CYP2D6 and CYP3A4 and with T1/2 values of 64, 14, and 176 min, respectively, and CLint of 0.261, 0.984 and 0.0786 μL/min/pmol CYP, respectively. No evidence of Compound 1 metabolism by CYP2B6, CYP2C8, CYP2C9 and CYP2C19 was observed.
# mGluR5 = mGluR5 (Homo sapiens, UniProt P41594); test: [3H]-MPEPy displacement from mGluR5; format: binding; details: read-out: inhibitor constant (Ki) for [3H]-MPEPy displacement from mGluR5
# C57/BI6J mice = test: Prevention of positive allosteric modulator (PAM) induced seizures; format: in vivo; details: oral gavage 2 hours before PAM 20 mg/kg i.p.
# Method: The objective of this study was to assess the enantiomeric selectivity of Compound 1 for the mGluR5 receptor as a function of seizure prevention. It had been previously reported that PAMs of mGluR5 are capable of inducing seizures in C57/BI6J mice.
# Compound 1 (0.12, 0.24, 0.47, 0.94, 1.88, 3.75 or 7.5 mg/kg), enantiomer of Compound 1 (7.5, 15 or 30 mg/kg) or vehicle were administered by oral gavage to C57/BI6J mice of 3-11 months of age. After 2 hours, a PAM compound was administered at 20 mg/kg via intraperitoneal injection. Animals were then placed in a 10 inch diameter acrylic cage for observation and video recording for 2 h post dose and seizures were scored using the Racine seizure scoring criteria and normalized to a scale of 0-1.
# [1] = Solubility in EtOAc/heptane mixtures by HPLC; format: physicochemical; details: organic solvent or mixture, thermodynamic from solid
# Method: Solubility data were generated applying the following protocol: slurries of Compound 1 were prepared and allowed to equilibrate at 20° C. under stirring for about 18 hours. To determine the concentration in supernatant, about 0.1 mL of slurry was sampled with syringe, filtered, weighed, diluted with MeCN, and injected into an HPLC. […] Samples were cooled to 20° C., and solid residues were isolated by filtration on 20-μm PTFE filter, dried under vacuum at 40° C., and submitted to XRPD analysis. Compound 1 peak area for each sample was recorded, and solubility data were calculated using previously determined response factor (245 nm, 1460 mAU*sec/mg/mL, Table 7). The data were combined and visualized on chart with the solubility as function of the percentage of heptane by volume. […] Solubility smoothly decreases with the increase in heptane amount.
# Chain of mGluR5 (P41594 21-1212): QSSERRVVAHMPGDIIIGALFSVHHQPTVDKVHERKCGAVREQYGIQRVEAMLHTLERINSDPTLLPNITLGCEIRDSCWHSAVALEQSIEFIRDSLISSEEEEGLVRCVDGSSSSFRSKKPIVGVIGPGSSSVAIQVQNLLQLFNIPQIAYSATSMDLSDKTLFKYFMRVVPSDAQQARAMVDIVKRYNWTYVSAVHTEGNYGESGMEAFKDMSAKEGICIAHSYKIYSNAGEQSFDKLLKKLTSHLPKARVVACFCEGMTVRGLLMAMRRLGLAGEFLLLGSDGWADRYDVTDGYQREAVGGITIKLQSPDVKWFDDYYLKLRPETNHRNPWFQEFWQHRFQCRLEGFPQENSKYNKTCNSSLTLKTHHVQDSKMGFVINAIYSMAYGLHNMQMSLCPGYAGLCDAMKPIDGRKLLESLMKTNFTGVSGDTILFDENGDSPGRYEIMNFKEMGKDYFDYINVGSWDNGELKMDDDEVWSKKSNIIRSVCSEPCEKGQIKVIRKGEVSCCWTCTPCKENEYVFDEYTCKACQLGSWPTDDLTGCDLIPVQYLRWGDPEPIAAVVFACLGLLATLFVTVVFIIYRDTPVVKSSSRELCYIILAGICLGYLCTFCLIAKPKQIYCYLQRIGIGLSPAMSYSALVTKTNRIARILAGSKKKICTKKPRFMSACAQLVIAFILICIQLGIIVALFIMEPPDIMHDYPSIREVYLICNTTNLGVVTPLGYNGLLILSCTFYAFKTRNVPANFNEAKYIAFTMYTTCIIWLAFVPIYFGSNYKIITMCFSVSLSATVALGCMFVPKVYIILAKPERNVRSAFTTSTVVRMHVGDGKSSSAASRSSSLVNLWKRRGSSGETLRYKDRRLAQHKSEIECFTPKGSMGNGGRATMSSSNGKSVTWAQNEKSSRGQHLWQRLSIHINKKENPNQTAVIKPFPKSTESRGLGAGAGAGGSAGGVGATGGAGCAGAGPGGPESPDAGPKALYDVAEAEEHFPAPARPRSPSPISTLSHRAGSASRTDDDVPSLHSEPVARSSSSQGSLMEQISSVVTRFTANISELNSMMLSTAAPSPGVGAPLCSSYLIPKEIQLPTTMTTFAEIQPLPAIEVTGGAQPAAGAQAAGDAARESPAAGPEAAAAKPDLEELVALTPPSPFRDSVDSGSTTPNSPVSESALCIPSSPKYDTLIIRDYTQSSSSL
# T1 sequence (P10632 whole entry): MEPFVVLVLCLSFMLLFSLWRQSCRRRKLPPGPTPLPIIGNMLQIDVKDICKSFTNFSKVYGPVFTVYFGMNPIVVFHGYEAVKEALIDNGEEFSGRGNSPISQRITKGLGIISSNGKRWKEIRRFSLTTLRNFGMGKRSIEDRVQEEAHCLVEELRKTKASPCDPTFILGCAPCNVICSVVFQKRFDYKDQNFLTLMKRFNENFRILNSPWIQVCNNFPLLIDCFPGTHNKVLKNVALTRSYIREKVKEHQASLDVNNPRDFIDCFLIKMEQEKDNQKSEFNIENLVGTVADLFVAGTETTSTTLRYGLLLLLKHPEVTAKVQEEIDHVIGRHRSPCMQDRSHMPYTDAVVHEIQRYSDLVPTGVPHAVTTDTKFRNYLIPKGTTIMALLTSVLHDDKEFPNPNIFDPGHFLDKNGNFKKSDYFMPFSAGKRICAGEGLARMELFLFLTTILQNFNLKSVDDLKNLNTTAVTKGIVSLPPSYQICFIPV
smiles,measurement,setting,value
"O=C1N[C@H](c2cncc(C#Cc3ccccc3)c2)[C@@H](c2ccccc2Cl)O1 [Compound 1, (4R,5R)-5-(2-chlorophenyl)-4-(5-(phenylethynyl)pyridin-3-yl)oxazolidin-2-one]","SV2A and PSD-95 staining in hippocampal and cortical sections, relative to vehicle","APP/PS1 mice; 3.75 mg/kg q12 oral, at least 28 days",significant increases
same,rescue of synaptic density after washout,APP/PS1 mice; one month washout period,persists after drug washout; also recorded: preserved
same,normalization of expression patterns,neurons and glia,to a much greater extent in neurons than glia
same,metabolism by CYP2C8,CYP2C8,No evidence
same,Ki,mGluR5,0.6 nM
same,seizure prevention activity,"C57/BI6J mice; Compound 1 0.12-7.5 mg/kg, enantiomer 7.5-30 mg/kg",dose dependent prevention
same,IC50 of inhibition of PAM-induced seizures,C57/BI6J mice; Racine score,1.09 mg/kg
same,solubility,"[1]; EtOAc/heptane 20:80 (% v/v), 20° C.",2 mg/mL
same,solubility,"[1]; EtOAc/heptane 20:80 (% v/v), 45° C.",3 mg/mL
same,solubility,"[1]; EtOAc/heptane 32:68 (% v/v), 20° C.",6 mg/mL
same,solubility,"[1]; EtOAc/heptane 32:68 (% v/v), 45° C.",10 mg/mL
same,solubility,"[1]; EtOAc/heptane 40:60 (% v/v), 20° C.",11 mg/mL
same,solubility,"[1]; EtOAc/heptane 40:60 (% v/v), 45° C.",17 mg/mL
same,solubility,"[1]; EtOAc/heptane 50:50 (% v/v), 20° C.",20 mg/mL
same,solubility,"[1]; EtOAc/heptane 50:50 (% v/v), 45° C.",34 mg/mL
same,solubility,"[1]; EtOAc/heptane 60:40 (% v/v), 20° C.",33 mg/mL
same,solubility,"[1]; EtOAc/heptane 60:40 (% v/v), 45° C.",61 mg/mL
same,solubility,"[1]; EtOAc/heptane 70:30 (% v/v), 20° C.",49 mg/mL
same,solubility,"[1]; EtOAc/heptane 70:30 (% v/v), 45° C.",85 mg/mL
same,solubility,"[1]; EtOAc/heptane 80:20 (% v/v), 20° C.",69 mg/mL
same,solubility,"[1]; EtOAc/heptane 80:20 (% v/v), 45° C.",124 mg/mL
same,solubility,"[1]; EtOAc/heptane 90:10 (% v/v), 20° C.",95 mg/mL
same,solubility,"[1]; EtOAc/heptane 90:10 (% v/v), 45° C.",177 mg/mL
same,solubility,"[1]; EtOAc/heptane 100:0 (% v/v), 20° C.",115 mg/mL
same,solubility,"[1]; EtOAc/heptane 100:0 (% v/v), 45° C.",187 mg/mL
